The target in experiment [1] is T1, PiAA7A (Phytophthora infestans, UniProt D0MXI7).
T1 construct: gene PITG_02928
The settings on record: co-substrate O2; 25 mM MES pH 6, 20 °C, 1 nM enzyme; sigmoidal (allosteric) model.

Experiment [2] addresses T2, PiAA7D (Phytophthora infestans, UniProt D0N574).
T2 construct: gene PITG_06591
The settings on record: co-substrate O2; 25 mM MES pH 6, 20 °C, 1 nM enzyme; sigmoidal (allosteric) model.

T1 sequence (D0MXI7 27-509 limits assumed): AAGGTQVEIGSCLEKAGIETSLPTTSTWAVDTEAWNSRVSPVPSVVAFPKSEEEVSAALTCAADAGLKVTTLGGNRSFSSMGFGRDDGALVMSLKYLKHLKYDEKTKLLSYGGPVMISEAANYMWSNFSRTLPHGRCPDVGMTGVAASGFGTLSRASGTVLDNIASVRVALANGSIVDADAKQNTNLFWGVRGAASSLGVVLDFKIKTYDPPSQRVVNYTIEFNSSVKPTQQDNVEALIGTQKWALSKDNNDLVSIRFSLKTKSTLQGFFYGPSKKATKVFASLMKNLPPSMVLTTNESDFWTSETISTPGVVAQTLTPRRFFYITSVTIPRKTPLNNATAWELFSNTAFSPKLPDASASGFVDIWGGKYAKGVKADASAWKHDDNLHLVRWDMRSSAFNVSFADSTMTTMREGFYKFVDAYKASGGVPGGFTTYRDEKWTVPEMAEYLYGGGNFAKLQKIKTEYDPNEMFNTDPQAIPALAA
T2 sequence (D0N574 27-508 limits assumed): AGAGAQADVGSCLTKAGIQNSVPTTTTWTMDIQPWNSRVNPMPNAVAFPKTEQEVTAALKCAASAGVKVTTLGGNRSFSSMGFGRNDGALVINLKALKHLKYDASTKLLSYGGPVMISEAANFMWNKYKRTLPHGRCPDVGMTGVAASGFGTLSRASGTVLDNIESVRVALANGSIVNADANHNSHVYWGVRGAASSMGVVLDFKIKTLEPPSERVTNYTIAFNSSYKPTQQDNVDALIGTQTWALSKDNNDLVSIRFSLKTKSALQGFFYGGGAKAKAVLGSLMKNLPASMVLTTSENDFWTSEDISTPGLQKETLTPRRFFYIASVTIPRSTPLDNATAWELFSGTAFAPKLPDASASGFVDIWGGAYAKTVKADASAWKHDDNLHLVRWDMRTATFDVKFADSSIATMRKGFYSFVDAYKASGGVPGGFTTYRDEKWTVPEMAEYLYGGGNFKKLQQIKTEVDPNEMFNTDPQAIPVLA

In the case of `O=C(O)[C@H]1O[C@H](O[C@@H]2[C@H](O)[C@@H](O)[C@@H](O[C@@H]3[C@H](O)[C@@H](O)C(O)O[C@@H]3C(=O)O)O[C@@H]2C(=O)O)[C@H](O)[C@@H](O)[C@H]1O` (some centres unmarked) [OG3], the KM result in experiment [1] is reported as “a sigmoidal (allosteric) model was found to be more appropriate for PiAA7A with OG3”. Regarding `O=C(O)[C@H]1O[C@H](O[C@@H]2[C@H](O)[C@@H](O)[C@@H](O[C@@H]3[C@H](O)[C@@H](O)[C@@H](O[C@@H]4[C@H](O)[C@@H](O)C(O)O[C@@H]4C(=O)O)O[C@@H]3C(=O)O)O[C@@H]2C(=O)O)[C@H](O)[C@@H](O)[C@H]1O` (some centres unmarked) [OG4], the KM entry in experiment [2] is on record as “PiAA7D with OG4”.

The values are drawn from publication PMC12537922 (Nature Communications, 2025).
